Assay [1] in a line: Activity of hypocretin in obese humans: wrist actigraph and body weight. As to conditions: about 0.03 to about 600 μg/kg/day for four weeks, vs placebo control group. Format: in vivo. The text has this: Hypocretin or hypocretin agonist is submitted to safety testing following usual Food and Drug Administration (FDA) requirements. Afterward, the effect of administration of hypocretin or hypocretin agonist on obese humans is investigated. The study includes ten humans in the experimental group and ten humans in the control group. Humans in the experimental and control groups receive administration by intranasal inhalant, or by transdermal or other means. The experimental group receives hypocretin or hypocretin agonist at dosing regimes of about 0.03 μg/kg/day to about 600 μg/kg/day for a period of four weeks. The control group receives a placebo. Activity levels of the humans in both groups are measured with a wrist actigraph, and each human is weighed daily (or another sign of excess body weight is measured).
Each animal is weighed daily, and the running wheel activity for each animal is recorded.

Assay [2] in a line: Hypocretin via ventricular injection (osmotic minipump): running wheel activity and body weight. It is filed as in vivo, rat. As to conditions: third ventricle minipump, about 0.03 to about 600 μg/kg/day, vs control and untreated animals. The text has this:
The effect of hypocretin administration on the body weight of a normal rat or other rodent is investigated. The study includes ten animals in the experimental group, ten animals in the control group, and ten animals in the untreated group. […] Animals in the experimental and control groups are fitted with an Alzet Model 2004 osmotic minipump (Alza). The minipump delivers solution to the third ventricle of the brain, adjacent to the hypothalamus, for a one to six month period. The experimental group receives hypocretin peptide continuously at dosing regimes of about 0.03 μg/kg/day to about 600 μg/kg/day. The control group receives diluent. Animals in all groups are provided with a running wheel and customary rat chow is available ad libitum. Each animal is weighed daily (or another sign of excess body weight is measured), and the running wheel activity for each animal is recorded.

The nature of assay [3]: Hypocretin via jugular catheter/osmotic minipump: running wheel activity and body weight. Format: in vivo, rats. As to conditions: about 0.03 to about 600 μg/kg/day, vs control and untreated animals. The method, then:
The effect of administration of hypocretin-1 or other agonists of the hypocretin receptors on rats is investigated. The study includes ten animals in the experimental group, ten animals in the control group, and ten animals in the untreated group. […] Animals in the experimental and control groups receive a jugular catheter implant attached to an osmotic minipump. The experimental group receives hypocretin-1 or other agonist at dosing regimes of about 0.03 μg/kg/day to about 600 μg/kg/day. The control group receives diluent. Animals in all groups are provided with a running wheel and customary rat chow is available ad libitum. Each animal is weighed daily (or another sign of excess body weight is measured), and the running wheel activity for each animal is recorded.

A short description of assay [4]: Motor activity (actigraph) after Hcrt-1 injection. It is filed as in vivo. The protocol: FIG. 1. Acute changes in motor activity after Hcrt-1 administration. (a) A representative actigraph record (5 minute bins) showing the activity level during the 2 hr period following Hcrt-1 (3 μg/kg) and normal saline. Hcrt-1 produced an increase in motor activity within 5 minutes of injection that persisted for 60 minutes. […] In (b) values are mean±SE, *p<0.05; **p<0.01, Newman-Keuls test.
The motor or muscular activity level of the individual can be measured by a variety of means. Motor activity levels may be directly observed and measured by clinicians, or the individual may themselves measure their activity level which typically includes body movement or locomotion. The monitoring can include maintaining a log of activity, including intensity and duration of the activity. An actigraph device, or activity monitor, may be used. An actigraph detects activity by sensing motion via an internal accelerometer. It is a small lightweight instrument that can be worn, for example, on the wrist, waist, or ankle to record physical activity. Actigraphs are often used to estimate energy expenditure or to study motion in an individual, as described in Example 4 and shown in FIG. 1.
The differences in amplitude of motor activity following hypocretin and saline injection diminished over the following 60 minutes (FIGS. 1a, 1b).

A further assay relates to Hcrt-1 antiserum. The assay can be described thus: Solid-phase radioimmunoassay (RIA) for Hcrt-1. It is filed as binding. The settings on record: competition with 125I-labeled Hcrt-1 for immobilized antiserum. The protocol: FIG. 2. The protocol for a sequential multiple antigen radioimmunoassay for hypocretin-1 (Hcrt-1) and hypocretin-2 (Hcrt-2). Sample or standard is loaded into wells onto which antiserum for Hcrt-1 has been pre-adsorbed via protein-A Subsequently, radiolabeled Hcrt-1 (Hcrt-1*) is added to the wells. Competition for the antiserum then ensues between Hcrt-1 and Hcrt-1*. The contents of the wells are then transferred to new wells onto which antiserum for Hcrt-2 has been preadsorbed and the procedure repeated but with radiolabeled Hcrt-2 (Hcrt-2*). The previous wells are washed and counted for bound radioactivity. […]
Furthermore, sensitivity is increased over that obtained with more traditional methods using identical antibodies and assay volumes. […] For example, the individual wells of a 96-well plate containing Ab-bound tracer peptide are then physically separated and counted in a gamma counter. […]
The Hcrt-1, iodinated Hcrt-1, and Hcrt-1 antiserum were obtained from Phoenix Pharmaceuticals, Inc. (530 Harbor Blvd, Belmont, Calif.). […] This enables direct reading of radioactivity in a Top Count plate reader (Packard) without the requirement to separate out individual wells. […]
Prior to RIA, Hcrt-1 is extracted from the CSF or plasma sample. […] The eluant is then dried down and re-suspended in RIA buffer ready for assay. […]

Where [5] appears, read: Hcrt-1 3 μg/kg vs normal saline, actigraph record.

Where no end group is shown, it is not given here.

For hypocretin, in assay [1], the “activity levels (wrist actigraph)” value was “increased activity levels” and the weight loss result is “greater weight loss”. In addition, in assay [2], the running wheel activity entry is reported as “increased running wheel activity” and the weight gain result is recorded as “decreased weight gain”. Moreover, in assay [3], the running wheel activity entry was “increased running wheel activity” and the weight gain result is given as “decreased weight gain”. In addition, the motor activity entry in assay [4] (first 30 minutes after injection, vs saline injection) is “increased motor activity”.

For “hypocretin-1 (QPLPDCCRQKTCSCRLYELLHGAGNHAAGILTL; ends and bridges not checked; cysteine pairing not given here; UniProt O43612 34-66, looked up) [Hcrt-1, hypocretin neuropeptide derived from prepro-hypocretin; human orexin-A is reported as a 33 residue peptide of 3562 Da]”, in the assay with Hcrt-1 antiserum, the “IC50 value for this Hcrt-1 assay” value is 2 fmol. Besides, the “increase of motor activity as compared to saline control” value in assay [4] (0-30 and 30-60 minutes after administration, Newman-Keuls test) is “statistically significant”. Besides, in assay [4] (setting [5]), the “onset of increase in motor activity after injection” value is at most 5 min and the “persistence of increase in motor activity” value stood at 60 min.
